Counter-ions that a name gives are not always drawn.
Biological target: T1, hGIP-R (Homo sapiens, UniProt P48546)
T1 construct: expressed in transfected cells; host or cells: HEK-293 clonal cell lines
T1 sequence (P48546 22-466): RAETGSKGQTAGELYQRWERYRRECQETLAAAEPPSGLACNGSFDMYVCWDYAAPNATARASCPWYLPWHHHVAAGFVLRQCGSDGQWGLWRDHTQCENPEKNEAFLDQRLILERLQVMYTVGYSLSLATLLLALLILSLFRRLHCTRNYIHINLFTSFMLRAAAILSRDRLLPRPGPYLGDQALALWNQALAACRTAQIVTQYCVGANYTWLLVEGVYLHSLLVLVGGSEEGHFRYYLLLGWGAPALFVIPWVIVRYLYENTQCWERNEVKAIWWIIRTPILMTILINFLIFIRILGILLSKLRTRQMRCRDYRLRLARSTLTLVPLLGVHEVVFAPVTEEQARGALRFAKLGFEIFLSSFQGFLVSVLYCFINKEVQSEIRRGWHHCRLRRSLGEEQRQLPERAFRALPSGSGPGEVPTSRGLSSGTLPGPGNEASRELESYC
Experiment: Functional hGIP-R Assay (cAMP formation, HTRF)
Format: cell-based
Settings: for Emax: cAMP efficacy, percent of maximal response to GIP(1-42)OH, 37° C., 0.1% bovine casein, arithmetic mean ± SEM; for EC50: cAMP potency, HEK-293 cells expressing hGIP-R, incubated at 37° C. in the presence of 0.1% bovine casein, geometric mean, read-out: Human GIP-R EC50, nM (SEM, n)
Procedure: Functional activity was determined using CAMP formation in HEK-293 clonal cell lines expressing hGIP-R. hGIP-R receptor expressing cells were treated with compound (20 point concentration-response curve in DMSO, 2-fold Labcyte Echo direct dilution, 384 well plate Corning Cat #3570) in DMEM (Gibco Cat #31053) supplemented with 1× GlutaMAX™ (Gibco Cat #35050), 0.1% bovine casein (Sigma C4765-10ML), 250 μM IBMX (3-Isobutyl-1-methylxanthine, Acros Cat #228420010) and 20 mM HEPES (Gibco Cat #15630) in a 20 μL assay volume (final DMSO concentration was 1%). After a 30 min incubation at 37° C., the resulting increase in intracellular cAMP was quantitatively determined using the Revvity CAMP Dynamic 2 HTRF Assay Kit (62AM4PEJ). Briefly, cAMP levels within the cell were detected by adding the cAMP-d2 conjugate in cell lysis buffer (10 μL) followed by the antibody anti-cAMP-Eu^3+-Cryptate, also in cell lysis buffer (10 μL). The resulting competitive assay was incubated for at least 60 min at RT, then detected using a BMG Labtech PHERAstar FSX instrument with excitation at 320 nm and emission at 665 nm and 620 nm. PHERAstar units (emission at 665 nm/620 nm*10,000) are inversely proportional to the amount of cAMP present and were converted to nM cAMP per well using a CAMP standard curve. The amount of cAMP generated (nM) in each well was converted to a percent of the maximal response observed with human GIP (1-42) OH. A relative EC50 value and percent top (Emax) were derived by non-linear regression analysis using the percent maximal response vs. the concentration of compound added, fitted to a four-parameter logistic equation.

Structure (SMILES) | Emax [%] | EC50 [nM]
Cc1nc(-c2cnc3nc(C4CC4)cn3c2)ccc1[C@H]1C[C@@]12CCN([C@H](Cc1cnn(C(F)F)c1)C(=O)NC(C)(C)Cn1nc(C(F)(F)F)cc1-c1cnc(C(C)(C)OP(=O)(O)O)nc1)C2=O [Example 196, 2-(5-(1-(2-((R)-2-((1R,3R)-1-(6-(2-Cyclopropylimidazo[1,2-a]pyrimidin-6-yl)-2-methylpyridin-3-yl)-4-oxo-5-azaspiro[2.4]heptan-5-yl)-3-(1-(difluoromethyl)-1H-pyrazol-4-yl)propanamido)-2-methylpropyl)-3-(trifluoromethyl)-1H-pyrazol-5-yl)pyrimidin-2-yl)propan-2-yl dihydrogen phosphate, ammonia salt] | 95.7 | 0.601
Cn1cc(C[C@@H](NC(=O)[C@H]2C[C@@H]2c2ccc(-c3cnc4nn(C)cc4c3)cc2)C(=O)NC(C)(C)Cn2nc(C(F)(F)F)cc2-c2cc3c(=O)[nH]cnn3c2)cn1 [Example 57, (1S,2S)-N-((R)-1-((2-Methyl-1-(5-(4-oxo-3,4-dihydropyrrolo[2,1-f][1,2,4]triazin-6-yl)-3-(trifluoromethyl)-1H-pyrazol-1-yl)propan-2-yl)amino)-3-(1-methyl-1H-pyrazol-4-yl)-1-oxopropan-2-yl)-2-(4-(2-methyl-2H-pyrazolo[3,4-b]pyridin-5-yl)phenyl) cyclopropane-1-carboxamide] | 112 ± 14.8 | 61
Cn1cc(C[C@@H](NC(=O)[C@H]2C[C@@H]2c2ccc(-c3cnc4nn(C)cc4c3)cc2)C(=O)NC(C)(C)Cn2nc(C(F)(F)F)cc2-c2cccc(=O)[nH]2)cn1 [Example 64, (1S,2S)-N—((R)-1-((2-Methyl-1-(5-(6-oxo-1,6-dihydropyridin-2-yl)-3-(trifluoromethyl)-1H-pyrazol-1-yl)propan-2-yl)amino)-3-(1-methyl-1H-pyrazol-4-yl)-1-oxopropan-2-yl)-2-(4-(2-methyl-2H-pyrazolo[3,4-b]pyridin-5-yl)phenyl)cyclopropane-1-carboxamide] | 128 | 61.9
Cn1cc(C[C@@H](NC(=O)[C@H]2C[C@@H]2c2ccc(-c3cnc4nn(C)cc4c3)cc2)C(=O)NC(C)(C)Cn2nc(C(F)(F)F)cc2-c2cnn3c2CN(C(=O)OC(C)(C)C)CC3)cn1 [Example 56, tert-Butyl 3-(1-(2-methyl-2-((R)-3-(1-methyl-1H-pyrazol-4-yl)-2-((1S,2S)-2-(4-(2-methyl-2H-pyrazolo[3,4-b]pyridin-5-yl)phenyl)cyclopropane-1-carboxamido)propanamido)propyl)-3-(trifluoromethyl)-1H-pyrazol-5-yl)-6,7-dihydropyrazolo[1,5-a]pyrazine-5(4H)-carboxylate] | 113 ± 10.7 | 84.6
[2H]C([2H])([2H])n1cc(C[C@H](C(=O)NC(C)(C)Cn2nc(C(F)(F)F)cc2-c2ccc(C(C)(C)O)nc2)N2CC[C@@]3(C[C@@H]3c3ccc(-c4cnc5nc(COC)cn5c4)cc3Cl)C2=O)cn1 [Example 188, (R)-2-((1S,3R)-1-(2-chloro-4-(2-(methoxymethyl)imidazo[1,2-a]pyrimidin-6-yl)phenyl)-4-oxo-5-azaspiro[2.4]heptan-5-yl)-N-(1-(5-(6-(2-hydroxypropan-2-yl)pyridin-3-yl)-3-(trifluoromethyl)-1H-pyrazol-1-yl)-2-methylpropan-2-yl)-3-(1-(methyl-d3)-1H-pyrazol-4-yl)propanamide] | 110 ± 4.51 | 0.265
[2H]C([2H])([2H])n1cc(C[C@H](C(=O)NC(C)(C)Cn2nc(C(F)(F)F)cc2-c2ccc(C(C)(C)O)nc2)N2CC[C@@]3(C[C@@H]3c3ccc(-c4cnc5nc(COC)cn5c4)nc3C3CC3)C2=O)cn1 [Example 192, (R)-2-((1R,3R)-1-(2-cyclopropyl-6-(2-(methoxymethyl)imidazo[1,2-a]pyrimidin-6-yl)pyridin-3-yl)-4-oxo-5-azaspiro[2.4]heptan-5-yl)-N-(1-(5-(6-(2-hydroxypropan-2-yl)pyridin-3-yl)-3-(trifluoromethyl)-1H-pyrazol-1-yl)-2-methylpropan-2-yl)-3-(1-(methyl-d3)-1H-pyrazol-4-yl)propanamide] | 129 | 0.0409
CC(C)(Cc1ccc(F)cc1)NC(=O)[C@@H](Cc1cnc2ncccn12)NC(=O)[C@H]1C[C@@H]1c1ccc(-c2cnc3nc(C(F)(F)F)cn3c2)cc1 [Example 86, (1S,2S)-N-((R)-1-((1-(4-Fuorophenyl)-2-methylpropan-2-yl)amino)-3-(imidazo[1,2-a]pyrimidin-3-yl)-1-oxopropan-2-yl)-2-(4-(2-(trifluoromethyl)imidazo[1,2-a]pyrimidin-6-yl)phenyl)cyclopropane-1-carboxamide] | 71.1 ± 2.32 | 10.2
Cn1cc2cc(-c3ccc([C@H]4C[C@@]45CCN([C@H](Cc4cnn(C(F)F)c4)C(=O)NC(C)(C)Cn4nc(C(F)(F)F)cc4-c4cnc(N6CCC(=O)CC6)nc4)C5=O)cc3)cnc2n1 [Example 142, (R)-3-(1-(Difluoro-methyl)-1H-pyrazol-4-yl)-N-(2-methyl-1-(5-(2-(4-oxopiperidin-1-yl)pyrimidin-5-yl)-3-(trifluoromethyl)-1H-pyrazol-1-yl)propan-2-yl)-2-((1R,3R)-1-(4-(2-methyl-2H-pyrazolo[3,4-b]pyridin-5-yl)phenyl)-4-oxo-5-azaspiro[2.4]heptan-5-yl)propanamide] | 49.9 ± 1.38 | 102
[2H]C([2H])([2H])n1cc(C[C@H](C(=O)NC(C)(C)Cn2nc(C(F)(F)F)cc2-c2ccc(C(C)(C)O)nc2)N2CC[C@@]3(C[C@@H]3c3ccc(-c4cnc5nn(CC)cc5c4)nc3C)C2=O)cn1 [Example 189, (R)-2-((1R,3R)-1-(6-(2-Ethyl-2H-pyrazolo[3,4-b]pyridin-5-yl)-2-methylpyridin-3-yl)-4-oxo-5-azaspiro[2.4]heptan-5-yl)-N-(1-(5-(6-(2-hydroxypropan-2-yl)pyridin-3-yl)-3-(trifluoromethyl)-1H-pyrazol-1-yl)-2-methylpropan-2-yl)-3-(1-(methyl-d3)-1H-pyrazol-4-yl)propanamide] | 61 ± 0.6 | 1.3
CCn1cc2cc(-c3ccc([C@H]4C[C@@]45CCN([C@H](Cc4cnn(C(F)F)c4)C(=O)NC(C)(C)Cn4nc(C(F)(F)F)cc4-c4cnc(C(C)(C)O)nc4)C5=O)c(C)n3)cnc2n1 [Example 164, (R)-3-(1-(difluoromethyl)-1H-pyrazol-4-yl)-2-((1R,3R)-1-(6-(2-ethyl-2H-pyrazolo[3,4-b]pyridin-5-yl)-2-methylpyridin-3-yl)-4-oxo-5-azaspiro[2.4]heptan-5-yl)-N-(1-(5-(2-(2-hydroxypropan-2-yl)pyrimidin-5-yl)-3-(trifluoromethyl)-1H-pyrazol-1-yl)-2-methylpropan-2-yl)propanamide] | 53.3 ± 0.286 | 4.31
Cc1ncc(-c2cc(C(F)(F)F)nn2CC(C)(C)NC(=O)[C@@H](Cc2cnn(C(F)F)c2)N2CC[C@@]3(C[C@@H]3c3ccc(-c4cnc5nn(C6CC6)cc5c4)nc3C)C2=O)cn1 [Example 179, (R)-2-((1R,3R)-1-(6-(2-cyclopropyl-2H-pyrazolo[3,4-b]pyridin-5-yl)-2-methylpyridin-3-yl)-4-oxo-5-azaspiro[2.4]heptan-5-yl)-3-(1-(difluoromethyl)-1H-pyrazol-4-yl)-N-(2-methyl-1-(5-(2-methylpyrimidin-5-yl)-3-(trifluoromethyl)-1H-pyrazol-1-yl)propan-2-yl)propanamide] | 75.9 ± 4.59 | 2.95
